The text below walks through data of patent US9603930B2, “Liquid bendamustine formulation” (Navinta, LLC, priority 2014, dated 2017).

The structures appear in SMILES notation.

For data set [1] the following is noted: 2 months of storage at 25° C.; cited from earlier work.
The conditions of data set [2]: polyethylene glycol alone; from U.S. Pat. No. 8,609,707; cited from earlier work.
A short description of data set [3]: Solubility of bendamustine in solvents.

Take `Cl.Cn1c(CCCC(=O)O)nc2cc(N(CCCl)CCCl)ccc21`: the “stability of the solid on storage” value in data set [1] is “degrades”.

With `Cn1c(CCCC(=O)O)nc2cc(N(CCCl)CCCl)ccc21` [Bendamustine, 4-[5-[bis(2-chloroethyl)amino]-1-methylbenzimidazol-2-yl]butanoic acid], in data set [2], the “solubility in PEG alone” value is “poorly soluble”. In addition, in data set [3], the solubility in glycerin entry was “very high solubility”.
